For assay [1], the system named is BCL-2/PROTAC/VCB ternary complex (HiBit-BCL-2, HaloTag-VHL). Put plainly: NanoBRET intracellular ternary complex formation in 293T cells, BCL-2. The format is cell-based, human. To be noted: for NanoBRET signal (610/450 ratio, background-subtracted), Ave, Bcl-2: Ave of Read1 and Read2, per replicate well; for NanoBRET signal (610/450 ratio, background-subtracted), Read1, Bcl-2 / NanoBRET signal (610/450 ratio, background-subtracted), Read2, Bcl-2: individual replicate wells. The text has this: (§1) Plasmids HaloTag-VHL (Cat. No. CS1679C155) and CMV HiBit (Cat. No. CS1956B03) were purchased from Promega. HiBit-BCL-xL and HiBit-BCL-2 were constructed previously. The two mutants (HiBit-BCL-xL-K157-only and HiBit-BCL-xL-K-ko) were constructed through Gibson assembly method. The primer pair (5′-[…]-3′ and 5′-[…]c[…]-3′) and the template Flag-BCL-xL-K157-only or Flag-BCL-xL-K-ko (pDL2129)[2] were used to clone the BCL-xL-K157-only-containing and BCL-xL-K-ko-containing fragments, respectively. The primer pair (5′-[…]g[…]-3′ and 5′-[…]-3′) and pBit3.1-N (Cat. No. N2361, Promega) were used to clone the vector-containing fragment. The PCR fragments were assembled using NEBuilder® HiFi DNA Assembly Master Mix (Cat. No. E2621, NEB, Ipswich, MA, USA). DNA sequences in all these plasmids were authenticated by automatic sequencing. […] After 24 h, 2 × 10^4 transfected cells were seeded into white 96-well tissue culture plates in Gibco™ Opti-MEM™ I Reduced Serum Medium, No Phenol Red (Cat. No. 11-058-021, Fisher) containing 4% FBS with or without HaloTag NanoBRET 618 Ligand (Cat. No. PRN1662, Promega) and incubated overnight at 37 °C, 5% CO2. The following day, serial diluted compounds were added into the medium and plates were incubated at 37 °C, 5% CO2, for 6 h. After treatment, NanoBRET Nano-Glo Substrate (cat. no. N1662, Promega) was added into the medium, and the contents were mixed by shaking the plate for 30 s before measuring donor and acceptor signals on Biotek plate reader. Dual-filtered luminescence was collected with a 450/50 nm bandpass filter (donor, NanoBiT-BCL-XL protein or NanoBiT-BCL-2 protein) and a 610-nm longpass filter (acceptor, HaloTag NanoBRET ligand) using an integration time of 0.5 s. mBRET ratios were calculated following the NanoBRET™ Nano-Glo® Detection System (Cat. No. N1662, Promega).

Assay [2] deals with BCL-xL/PROTAC/VCB ternary complex (HiBit-BCL-xL, HaloTag-VHL). Kind of assay: NanoBRET intracellular ternary complex formation in 293T cells, BCL-xL. To be noted: for NanoBRET signal (610/450 ratio, background-subtracted), Ave, Bcl-xl: Ave of Read1 and Read2, per replicate well; for NanoBRET signal (610/450 ratio, background-subtracted), Read1, Bcl-xl / NanoBRET signal (610/450 ratio, background-subtracted), Read2, Bcl-xl: individual replicate wells. The format is cell-based, human.
From the text: as §1

Each structure is given as a SMILES string. “And” between values parts separate entries of the source, which are not always exact repeats. Equal entries are not always repeated.

Turning to `Cc1ncsc1-c1ccc(C(C)NC(=O)C2CC(O)CN2C(=O)C(NC(=O)CCCCCCCC(=O)N2CCN(CC3(C)CCC(c4ccc(Cl)cc4)=C(CN4CCN(c5ccc(C(=O)NS(=O)(=O)c6ccc(NC(CCN7CCOCC7)CSc7ccccc7)c(S(=O)(=O)C(F)(F)F)c6)cc5)CC4)C3)CC2)C(C)(C)C)cc1` (mixture of isomers) [319-C9], in assay [1] (0.333 uM), the “NanoBRET signal (610/450 ratio, background-subtracted), Ave, Bcl-2” value is 5.707 and 5.966 and 5.739; the “NanoBRET signal (610/450 ratio, background-subtracted), Read1, Bcl-2” value was 6.091 and 5.602 and 5.911; the “NanoBRET signal (610/450 ratio, background-subtracted), Read2, Bcl-2” value is 5.322 and 6.329 and 5.568. Moreover, in assay [1] (1 uM), the “NanoBRET signal (610/450 ratio, background-subtracted), Ave, Bcl-2” value is 8.164 and 7.003 and 7.361; the “NanoBRET signal (610/450 ratio, background-subtracted), Read1, Bcl-2” value was 7.94 and 7.065 and 7.5271; the “NanoBRET signal (610/450 ratio, background-subtracted), Read2, Bcl-2” value is 8.387 and 6.941 and 7.196. In assay [1] (3 uM), the “NanoBRET signal (610/450 ratio, background-subtracted), Ave, Bcl-2” value is 7.788 and 8.559 and 8.325; the “NanoBRET signal (610/450 ratio, background-subtracted), Read1, Bcl-2” value is 7.715 and 8.321 and 8.876; the “NanoBRET signal (610/450 ratio, background-subtracted), Read2, Bcl-2” value is 7.862 and 8.797 and 7.774. For the same compound, in assay [2] (0.333 uM), the “NanoBRET signal (610/450 ratio, background-subtracted), Ave, Bcl-xl” value was 7.303 and 5.548 and 6.719; the “NanoBRET signal (610/450 ratio, background-subtracted), Read1, Bcl-xl” value was 7.675 and 6.0029 and 7.554; the “NanoBRET signal (610/450 ratio, background-subtracted), Read2, Bcl-xl” value is 6.932 and 5.093 and 5.885. Also, in assay [2] (1 uM), the “NanoBRET signal (610/450 ratio, background-subtracted), Ave, Bcl-xl” value was 6.725 and 7.112; the “NanoBRET signal (610/450 ratio, background-subtracted), Read1, Bcl-xl” value was 7.559 and 11.4906 and 7.902; the “NanoBRET signal (610/450 ratio, background-subtracted), Read2, Bcl-xl” value is 5.8908 and 9.929 and 6.321. Moreover, in assay [2] (3 uM), the “NanoBRET signal (610/450 ratio, background-subtracted), Ave, Bcl-xl” value was 8.449 and 8.436 and 7.804; the “NanoBRET signal (610/450 ratio, background-subtracted), Read1, Bcl-xl” value is 8.506 and 8.886 and 8.744; the “NanoBRET signal (610/450 ratio, background-subtracted), Read2, Bcl-xl” value was 8.392 and 7.986 and 6.863.
With `Cc1ncsc1-c1ccc(C(C)NC(=O)C2CC(O)CN2C(=O)C(NC(=O)CCCCCCCCC(=O)N2CCN(CC3(C)CCC(c4ccc(Cl)cc4)=C(CN4CCN(c5ccc(C(=O)NS(=O)(=O)c6ccc(NC(CCN7CCOCC7)CSc7ccccc7)c(S(=O)(=O)C(F)(F)F)c6)cc5)CC4)C3)CC2)C(C)(C)C)cc1` (mixture of isomers) [319-C10], the “NanoBRET signal (610/450 ratio, background-subtracted), Ave, Bcl-2” value in assay [1] (0.333 uM) is 5.28 and 5.803 and 5.204; in assay [1] (1 uM), 6.3574 and 6.177 and 5.647; in assay [1] (3 uM), 5.897 and 6.959 and 6.718. Further, the “NanoBRET signal (610/450 ratio, background-subtracted), Read1, Bcl-2” value in assay [1] (0.333 uM) was 5.21 and 6.342 and 5.353; in assay [1] (1 uM) it was 6.493 and 6.555 and 5.614; in assay [1] (3 uM), 5.772 and 7.082 and 6.87. Besides, the “NanoBRET signal (610/450 ratio, background-subtracted), Read2, Bcl-2” value in assay [1] (0.333 uM) was 5.35 and 5.263 and 5.054; in assay [1] (1 uM), 6.221 and 5.799 and 5.68; in assay [1] (3 uM), 6.022 and 6.837 and 6.566. Also, the “NanoBRET signal (610/450 ratio, background-subtracted), Ave, Bcl-xl” value in assay [2] (0.333 uM) was 7.322 and 6.232 and 5.134; in assay [2] (1 uM), 7.385 and 6.082 and 6.14; in assay [2] (3 uM), 5.435 and 6.539 and 6.402. The “NanoBRET signal (610/450 ratio, background-subtracted), Read1, Bcl-xl” value in assay [2] (0.333 uM) is 7.3 and 6.35 and 5.398; in assay [2] (1 uM), 7.049 and 5.821 and 5.916; in assay [2] (3 uM), 5.79 and 7.0778 and 5.898. In addition, the “NanoBRET signal (610/450 ratio, background-subtracted), Read2, Bcl-xl” value is 7.344 and 6.1137 and 4.87 in assay [2] (0.333 uM); 7.722 and 6.342 and 6.364 in assay [2] (1 uM); 5.08 and 6.001 and 6.906 in assay [2] (3 uM).
Turning to `Cc1ncsc1-c1ccc(C(C)NC(=O)C2CC(O)CN2C(=O)C(NC(=O)CCCCCCCCCC(=O)N2CCN(CC3(C)CCC(c4ccc(Cl)cc4)=C(CN4CCN(c5ccc(C(=O)NS(=O)(=O)c6ccc(NC(CCN7CCOCC7)CSc7ccccc7)c(S(=O)(=O)C(F)(F)F)c6)cc5)CC4)C3)CC2)C(C)(C)C)cc1` (mixture of isomers) [319-C11], the “NanoBRET signal (610/450 ratio, background-subtracted), Ave, Bcl-2” value was 4.383 and 4.153 and 4.737 in assay [1] (0.333 uM); 4.831 and 5.865 and 5.494 in assay [1] (1 uM); 4.755 and 5.241 and 5.369 in assay [1] (3 uM). For the same compound, the “NanoBRET signal (610/450 ratio, background-subtracted), Read1, Bcl-2” value in assay [1] (0.333 uM) is 4.892 and 4.708 and 4.979; in assay [1] (1 uM), 4.901 and 5.9757 and 5.389; in assay [1] (3 uM), 5 and 5.455 and 5.5909. The “NanoBRET signal (610/450 ratio, background-subtracted), Read2, Bcl-2” value in assay [1] (0.333 uM) is 3.874 and 3.599 and 4.495; in assay [1] (1 uM), 4.762 and 5.754 and 5.599; in assay [1] (3 uM), 4.5106 and 5.027 and 5.1462. Also, the “NanoBRET signal (610/450 ratio, background-subtracted), Ave, Bcl-xl” value is 5.756 and 6.621 and 6.037 in assay [2] (0.333 uM); 5.696 and 5.538 and 6.106 in assay [2] (1 uM); 5.386 and 5.324 and 6.583 in assay [2] (3 uM). Moreover, the “NanoBRET signal (610/450 ratio, background-subtracted), Read1, Bcl-xl” value in assay [2] (0.333 uM) is 6.07 and 6.538 and 6.1116; in assay [2] (1 uM) it was 5.861 and 5.46 and 6.469; in assay [2] (3 uM), 5.512 and 5.444 and 6.844. Besides, the “NanoBRET signal (610/450 ratio, background-subtracted), Read2, Bcl-xl” value was 5.442 and 6.704 and 5.963 in assay [2] (0.333 uM); 5.532 and 5.616 and 5.743 in assay [2] (1 uM); 5.259 and 5.204 and 6.3216 in assay [2] (3 uM).

(Values after PMC8617031, “Development of a BCL-xL and BCL-2 dual degrader with improved anti-leukemic activity,” (Nature Communications, 2021).)
